# From patent US12227512B2, “Benzimidazoles and methods of using same” (priority 2019, dated 2025)
# Assays:
# [1] = test system: Gli-luciferace activity in the SUFU-KO-light cells; assay: SUFU-KO-Light assay, inhibition of Gli-luciferase activity; type: cell-based; settings: read-out: IC50 (μM) SUFU-KO-Light; inhibition of Gli-luciferase activity; listed as Isis-11 (+isomer/E1)
# Source text: IC50 SUFO-KO-Light values are for inhibition of Gli-luciferace activity in the SUFU-KO-light cells developed by the James Chen laboratory at Stanford University.
# [2] = Mouse PK evaluation, plasma, IV; settings: CD-1 mice; for concentration at 0.083 h / concentration at 0.25 h / concentration at 0.5 h / concentration at 1 h / concentration at 2 h / concentration at 4 h / concentration at 8 h / concentration at 24 h: Plasma concentration; for AUC(0-t): AUClast
# SARS-CoV-2 = settings: SARS-CoV-2-infected Vero E6 cells; 6 concentrations, 48 hours; XTT
# MB002 cells = assay: MTT assay, cell proliferation; type: cell-based; settings: MB002, read-out: Dose E1
# [3] = CD-1, mouse, in vivo, 3 mg/kg, Mean, 3 mg/kg IV
# [4] = CD-1, mouse, in vivo, 3 mg/kg, Mouse 1, 3 mg/kg IV
# [5] = CD-1, mouse, in vivo, 3 mg/kg, Mouse 2, 3 mg/kg IV
# [6] = CD-1, mouse, in vivo, 3 mg/kg, Mouse 3, 3 mg/kg IV
compound,measurement,setting,value
"CN(C)CCCn1c(N)nc2ccc3c(c21)CC(CN(C)C)O3 (single isomer, unassigned) [Compound E1]",IC50,[1],5 µM
same,"AUC_%Extrap_obs, Mean",[2]; 3 mg/kg IV,20.8%
same,"AUC_%Extrap_obs, Mouse 1",[2]; 3 mg/kg IV,25.7%
same,"AUC_%Extrap_obs, Mouse 2",[2]; 3 mg/kg IV,20.8%
same,"AUC_%Extrap_obs, Mouse 3",[2]; 3 mg/kg IV,15.9%
same,"AUClast/D, Mean",[2]; 3 mg/kg IV,116
same,"AUClast/D, Mouse 1",[2]; 3 mg/kg IV,107
same,"AUClast/D, Mouse 2",[2]; 3 mg/kg IV,108
same,"AUClast/D, Mouse 3",[2]; 3 mg/kg IV,132
same,"C0, Mean",[2]; 3 mg/kg IV,664 ng/mL
same,"C0, Mouse 1",[2]; 3 mg/kg IV,619 ng/mL
same,"C0, Mouse 2",[2]; 3 mg/kg IV,624 ng/mL
same,"C0, Mouse 3",[2]; 3 mg/kg IV,749 ng/mL
same,"Cl_obs, Mean",[2]; 3 mg/kg IV,115 mL/min/kg
same,"Cl_obs, Mouse 1",[2]; 3 mg/kg IV,116 mL/min/kg
same,"Cl_obs, Mouse 2",[2]; 3 mg/kg IV,122 mL/min/kg
same,"Cl_obs, Mouse 3",[2]; 3 mg/kg IV,106 mL/min/kg
same,"Vss_obs, Mean",[2]; 3 mg/kg IV,90 L/kg
same,"Vss_obs, Mouse 1",[2]; 3 mg/kg IV,104 L/kg
same,"Vss_obs, Mouse 2",[2]; 3 mg/kg IV,96.2 L/kg
same,"Vss_obs, Mouse 3",[2]; 3 mg/kg IV,68.3 L/kg
same,"Plasma concentration, Mouse 1","[2]; 3 mg/kg IV, 0.5 h",45.5 ng/mL
same,"Plasma concentration, Mouse 1","[2]; 3 mg/kg IV, 1 h",21.4 ng/mL
same,"Plasma concentration, Mouse 1","[2]; 3 mg/kg IV, 2 h",13.4 ng/mL
same,"Plasma concentration, Mouse 1","[2]; 3 mg/kg IV, 24 h",10.0 ng/mL
same,"Plasma concentration, Mouse 3","[2]; 3 mg/kg IV, 24 h",4.33 ng/mL
same,concentration at 0.083 h,[2]; [3],387 ng/mL
same,concentration at 0.25 h,[2]; [3],131 ng/mL
same,concentration at 0.5 h,"[2]; CD-1, mouse, in vivo, 3 mg/kg, Mean, 3 mg/kg IV, 0.5 h",59.1 ng/mL
same,concentration at 1 h,"[2]; CD-1, mouse, in vivo, 3 mg/kg, Mean, 3 mg/kg IV, 1 h",42.9 ng/mL
same,concentration at 2 h,"[2]; CD-1, mouse, in vivo, 3 mg/kg, Mean, 3 mg/kg IV, 2 h",17.8 ng/mL
same,concentration at 4 h,[2]; [3],13.5 ng/mL
same,concentration at 8 h,[2]; [3],7.3 ng/mL
same,concentration at 24 h,"[2]; CD-1, mouse, in vivo, 3 mg/kg, Mean, 3 mg/kg IV, 24 h",6.1 ng/mL
same,concentration at 0.083 h,[2]; [4],352 ng/mL
same,concentration at 0.25 h,[2]; [4],113 ng/mL
same,concentration at 4 h,[2]; [4],13.3 ng/mL
same,concentration at 8 h,[2]; [4],5.5 ng/mL
same,concentration at 0.083 h,[2]; [5],367 ng/mL
same,concentration at 0.25 h,[2]; [5],126 ng/mL
same,concentration at 0.5 h,"[2]; CD-1, mouse, in vivo, 3 mg/kg, Mouse 2, 3 mg/kg IV, 0.5 h",60.9 ng/mL
same,concentration at 1 h,"[2]; CD-1, mouse, in vivo, 3 mg/kg, Mouse 2, 3 mg/kg IV, 1 h",51.8 ng/mL
same,concentration at 2 h,"[2]; CD-1, mouse, in vivo, 3 mg/kg, Mouse 2, 3 mg/kg IV, 2 h",20.7 ng/mL
same,concentration at 4 h,[2]; [5],12.9 ng/mL
same,concentration at 8 h,[2]; [5],6.2 ng/mL
same,concentration at 24 h,"[2]; CD-1, mouse, in vivo, 3 mg/kg, Mouse 2, 3 mg/kg IV, 24 h",4.11 ng/mL
same,concentration at 0.083 h,[2]; [6],443 ng/mL
same,concentration at 0.25 h,[2]; [6],154 ng/mL
same,concentration at 0.5 h,"[2]; CD-1, mouse, in vivo, 3 mg/kg, Mouse 3, 3 mg/kg IV, 0.5 h",71 ng/mL
same,concentration at 1 h,"[2]; CD-1, mouse, in vivo, 3 mg/kg, Mouse 3, 3 mg/kg IV, 1 h",55.5 ng/mL
same,concentration at 2 h,"[2]; CD-1, mouse, in vivo, 3 mg/kg, Mouse 3, 3 mg/kg IV, 2 h",19.2 ng/mL
same,concentration at 4 h,[2]; [6],14.3 ng/mL
same,concentration at 8 h,[2]; [6],10.2 ng/mL
same,AUC(0-inf),"[2]; CD-1, mouse, in vivo, iv, 3 mg/kg, AUCInf, Mouse 3, 3 mg/kg IV",470 ng·h/mL
same,AUC(0-t),"[2]; CD-1, mouse, in vivo, iv, 3 mg/kg, Mean, 3 mg/kg IV",347 ng·h/mL
same,AUC(0-t),"[2]; CD-1, mouse, in vivo, iv, 3 mg/kg, Mouse 1, 3 mg/kg IV",321 ng·h/mL
same,AUC(0-t),"[2]; CD-1, mouse, in vivo, iv, 3 mg/kg, Mouse 2, 3 mg/kg IV",324 ng·h/mL
same,AUC(0-t),"[2]; CD-1, mouse, in vivo, iv, 3 mg/kg, Mouse 3, 3 mg/kg IV",395 ng·h/mL
same,MRT inf,"[2]; CD-1, mouse, in vivo, iv, 3 mg/kg, MRTInf_obs, Mouse 3, 3 mg/kg IV",10.7 h
same,half-life,"[2]; CD-1, mouse, in vivo, iv, 3 mg/kg, T1/2, Mouse 3, 3 mg/kg IV",720 min
same,effect on viral replication over the tested concentration range,SARS-CoV-2,no effect on viral replication
same,IC50,MB002 cells,16.5 µM
